Measurements as given in ChEMBL document CHEMBL4507299, “Data for DCP probe PF-04554878” (2021).

Experiments:
[1] = target: Serine/threonine-protein kinase WNK4 (Homo sapiens) (UniProt Q96J92)
[2] = target: Discoidin domain-containing receptor 2 (Homo sapiens) (UniProt Q16832)
[3] = target: Vascular endothelial growth factor receptor 3 (Homo sapiens) (UniProt P35916)
[4] = target: Calcium/calmodulin-dependent protein kinase kinase 2 (Homo sapiens) (UniProt Q96RR4)
[5] = target: 5'-AMP-activated protein kinase catalytic subunit alpha-1 (Homo sapiens) (UniProt Q13131)
[6] = target: Mitogen-activated protein kinase kinase kinase 5 (Homo sapiens) (UniProt Q99683)
[7] = target: Serine/threonine-protein kinase RIO2 (Homo sapiens) (UniProt Q9BVS4)
[8] = target: Atypical kinase COQ8A, mitochondrial (Homo sapiens) (UniProt Q8NI60)
[9] = target: Dual specificity protein kinase CLK3 (Homo sapiens) (UniProt P49761)
[10] = target: Serine/threonine-protein kinase BRSK2 (Homo sapiens) (UniProt Q8IWQ3)
[11] = target: Cyclin-dependent kinase 2 (Homo sapiens) (UniProt P24941)
[12] = target: Alpha-1A adrenergic receptor (Homo sapiens) (UniProt P35348); settings: Compound concentration 10.0 uM
[13] = target: Myosin-IIIb (Homo sapiens) (UniProt Q8WXR4)
[14] = target: 5-hydroxytryptamine receptor 2C (Homo sapiens) (UniProt P28335); settings: Compound concentration 10.0 uM
[15] = target: 5-hydroxytryptamine receptor 5A (Homo sapiens) (UniProt P47898); settings: Compound concentration 10.0 uM
[16] = test system: Receptor-type tyrosine-protein kinase FLT3 (Homo sapiens), P36888 [R834Q]
[17] = target: D(1B) dopamine receptor (Homo sapiens) (UniProt P21918); settings: Compound concentration 10.0 uM
Sequence of D(1B) dopamine receptor (Homo sapiens) (P21918 whole entry): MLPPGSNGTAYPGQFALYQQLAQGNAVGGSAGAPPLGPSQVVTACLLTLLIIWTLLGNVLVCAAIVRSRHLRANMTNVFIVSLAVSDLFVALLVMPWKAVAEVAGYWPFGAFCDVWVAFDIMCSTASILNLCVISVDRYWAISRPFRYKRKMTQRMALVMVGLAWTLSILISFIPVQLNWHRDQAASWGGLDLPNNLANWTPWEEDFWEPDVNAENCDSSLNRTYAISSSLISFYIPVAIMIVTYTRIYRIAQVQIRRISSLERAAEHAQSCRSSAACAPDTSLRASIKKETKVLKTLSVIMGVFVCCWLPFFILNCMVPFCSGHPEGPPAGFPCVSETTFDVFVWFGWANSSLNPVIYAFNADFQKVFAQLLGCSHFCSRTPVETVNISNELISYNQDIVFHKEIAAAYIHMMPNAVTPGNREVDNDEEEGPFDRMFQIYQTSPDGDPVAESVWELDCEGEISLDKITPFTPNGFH

[18] = target: Homeodomain-interacting protein kinase 2 (Homo sapiens) (UniProt Q9H2X6)
Sequence of Homeodomain-interacting protein kinase 2 (Homo sapiens) (Q9H2X6 whole entry, looked up): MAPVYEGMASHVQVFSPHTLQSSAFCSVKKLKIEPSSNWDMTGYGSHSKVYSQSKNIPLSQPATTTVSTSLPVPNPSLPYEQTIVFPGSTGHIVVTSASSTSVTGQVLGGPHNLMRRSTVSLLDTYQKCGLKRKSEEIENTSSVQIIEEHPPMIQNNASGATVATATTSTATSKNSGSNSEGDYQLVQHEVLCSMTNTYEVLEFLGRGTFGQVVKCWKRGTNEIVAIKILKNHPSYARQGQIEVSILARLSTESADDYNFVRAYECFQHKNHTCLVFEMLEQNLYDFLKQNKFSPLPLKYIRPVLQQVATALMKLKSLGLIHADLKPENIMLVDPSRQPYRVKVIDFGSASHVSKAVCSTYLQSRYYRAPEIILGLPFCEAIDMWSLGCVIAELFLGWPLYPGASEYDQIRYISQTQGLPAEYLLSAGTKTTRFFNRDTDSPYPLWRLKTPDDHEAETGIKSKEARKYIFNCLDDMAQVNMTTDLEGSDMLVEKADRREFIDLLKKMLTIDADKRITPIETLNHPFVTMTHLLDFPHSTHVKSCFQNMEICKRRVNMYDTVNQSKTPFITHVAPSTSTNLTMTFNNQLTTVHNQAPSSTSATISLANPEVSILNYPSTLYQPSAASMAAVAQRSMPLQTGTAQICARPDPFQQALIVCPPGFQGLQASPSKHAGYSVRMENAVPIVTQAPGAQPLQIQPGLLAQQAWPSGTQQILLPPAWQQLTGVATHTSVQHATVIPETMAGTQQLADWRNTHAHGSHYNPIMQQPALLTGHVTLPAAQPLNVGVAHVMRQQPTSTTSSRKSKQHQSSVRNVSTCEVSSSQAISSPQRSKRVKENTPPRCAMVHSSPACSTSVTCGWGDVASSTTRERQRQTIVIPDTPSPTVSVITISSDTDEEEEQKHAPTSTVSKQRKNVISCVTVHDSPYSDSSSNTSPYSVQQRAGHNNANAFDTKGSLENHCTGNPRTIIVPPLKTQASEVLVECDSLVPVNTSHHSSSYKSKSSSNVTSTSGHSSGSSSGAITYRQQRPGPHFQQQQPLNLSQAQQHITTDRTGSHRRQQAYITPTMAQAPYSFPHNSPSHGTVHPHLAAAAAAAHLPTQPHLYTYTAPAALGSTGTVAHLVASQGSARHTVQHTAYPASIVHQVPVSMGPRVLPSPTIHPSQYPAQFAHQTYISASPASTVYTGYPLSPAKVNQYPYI

[19] = target: Receptor tyrosine-protein kinase erbB-2 (Homo sapiens) (UniProt P04626)
Sequence of Receptor tyrosine-protein kinase erbB-2 (Homo sapiens) (P04626 whole entry): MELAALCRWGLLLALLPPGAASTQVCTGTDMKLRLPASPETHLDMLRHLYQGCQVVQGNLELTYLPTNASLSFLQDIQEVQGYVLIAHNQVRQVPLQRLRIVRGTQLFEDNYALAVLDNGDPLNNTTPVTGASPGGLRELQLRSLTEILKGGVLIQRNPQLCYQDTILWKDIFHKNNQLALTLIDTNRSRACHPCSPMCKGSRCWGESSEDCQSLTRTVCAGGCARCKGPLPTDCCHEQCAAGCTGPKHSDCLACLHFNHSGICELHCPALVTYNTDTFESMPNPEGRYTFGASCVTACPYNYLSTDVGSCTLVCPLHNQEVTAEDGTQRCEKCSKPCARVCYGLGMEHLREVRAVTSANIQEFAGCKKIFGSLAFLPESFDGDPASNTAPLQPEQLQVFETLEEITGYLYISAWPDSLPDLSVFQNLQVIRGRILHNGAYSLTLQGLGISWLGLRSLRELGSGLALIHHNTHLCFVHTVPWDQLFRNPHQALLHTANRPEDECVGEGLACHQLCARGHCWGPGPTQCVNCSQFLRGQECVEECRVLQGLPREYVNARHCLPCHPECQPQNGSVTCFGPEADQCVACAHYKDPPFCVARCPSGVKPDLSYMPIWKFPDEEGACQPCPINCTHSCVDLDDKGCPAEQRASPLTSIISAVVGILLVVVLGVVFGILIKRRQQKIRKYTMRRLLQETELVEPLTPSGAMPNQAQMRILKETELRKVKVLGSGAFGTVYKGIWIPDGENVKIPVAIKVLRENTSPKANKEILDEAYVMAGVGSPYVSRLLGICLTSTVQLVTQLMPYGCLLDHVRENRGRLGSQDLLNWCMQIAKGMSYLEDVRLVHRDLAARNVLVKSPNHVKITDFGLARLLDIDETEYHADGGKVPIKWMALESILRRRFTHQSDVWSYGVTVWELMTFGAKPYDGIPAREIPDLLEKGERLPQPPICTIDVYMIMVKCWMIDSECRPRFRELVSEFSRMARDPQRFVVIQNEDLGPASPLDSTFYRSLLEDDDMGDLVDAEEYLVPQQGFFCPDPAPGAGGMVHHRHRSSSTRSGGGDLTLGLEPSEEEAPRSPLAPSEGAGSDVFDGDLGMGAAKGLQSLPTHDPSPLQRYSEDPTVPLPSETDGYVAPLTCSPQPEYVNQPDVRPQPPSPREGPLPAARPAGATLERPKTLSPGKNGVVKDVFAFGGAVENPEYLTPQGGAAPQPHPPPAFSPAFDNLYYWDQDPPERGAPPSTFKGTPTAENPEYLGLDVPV

[20] = target: Mitogen-activated protein kinase 1 (Homo sapiens) (UniProt P28482)
Sequence of Mitogen-activated protein kinase 1 (Homo sapiens) (P28482 whole entry): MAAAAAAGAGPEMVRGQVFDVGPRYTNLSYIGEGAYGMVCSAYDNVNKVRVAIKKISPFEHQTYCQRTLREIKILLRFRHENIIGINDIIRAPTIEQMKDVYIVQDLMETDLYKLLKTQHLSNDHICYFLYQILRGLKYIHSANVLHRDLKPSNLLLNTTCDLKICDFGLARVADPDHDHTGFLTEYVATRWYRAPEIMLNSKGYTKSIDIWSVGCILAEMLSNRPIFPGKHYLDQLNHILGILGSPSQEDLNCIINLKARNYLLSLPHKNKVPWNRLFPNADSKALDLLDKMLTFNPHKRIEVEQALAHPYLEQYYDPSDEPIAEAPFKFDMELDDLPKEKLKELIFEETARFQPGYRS

[21] = target: Dual specificity protein kinase CLK1 (Homo sapiens, UniProt P49759)
[22] = target: Sodium-dependent serotonin transporter (Homo sapiens) (UniProt P31645); settings: Compound concentration 10.0 uM
[23] = target: Serine/threonine-protein kinase PLK2 (Homo sapiens) (UniProt Q9NYY3)
[24] = target: Serine/threonine-protein kinase Chk2 (Homo sapiens) (UniProt O96017)
[25] = target: Tyrosine-protein kinase Srms (Homo sapiens) (UniProt Q9H3Y6)
Sequence of Tyrosine-protein kinase Srms (Homo sapiens) (Q9H3Y6 whole entry): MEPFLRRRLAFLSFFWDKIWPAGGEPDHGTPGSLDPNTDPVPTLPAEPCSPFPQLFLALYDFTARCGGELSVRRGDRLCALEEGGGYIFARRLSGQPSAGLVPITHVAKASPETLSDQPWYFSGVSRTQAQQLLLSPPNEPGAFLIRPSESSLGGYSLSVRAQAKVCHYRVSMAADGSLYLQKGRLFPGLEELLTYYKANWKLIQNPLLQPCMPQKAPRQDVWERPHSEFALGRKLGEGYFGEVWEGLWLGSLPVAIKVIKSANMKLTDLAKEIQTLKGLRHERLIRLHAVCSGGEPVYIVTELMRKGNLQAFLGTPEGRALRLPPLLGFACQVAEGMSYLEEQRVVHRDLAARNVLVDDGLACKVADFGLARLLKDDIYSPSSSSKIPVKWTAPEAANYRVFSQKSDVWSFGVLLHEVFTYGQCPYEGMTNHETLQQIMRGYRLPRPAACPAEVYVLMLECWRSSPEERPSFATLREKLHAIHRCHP

[26] = test system: Receptor-type tyrosine-protein kinase FLT3 (Homo sapiens), P36888 [UNDEFINED MUTATION]
[27] = target: Phosphatidylinositol 3-kinase catalytic subunit type 3 (Homo sapiens) (UniProt Q8NEB9)
Sequence of Phosphatidylinositol 3-kinase catalytic subunit type 3 (Homo sapiens) (Q8NEB9 whole entry): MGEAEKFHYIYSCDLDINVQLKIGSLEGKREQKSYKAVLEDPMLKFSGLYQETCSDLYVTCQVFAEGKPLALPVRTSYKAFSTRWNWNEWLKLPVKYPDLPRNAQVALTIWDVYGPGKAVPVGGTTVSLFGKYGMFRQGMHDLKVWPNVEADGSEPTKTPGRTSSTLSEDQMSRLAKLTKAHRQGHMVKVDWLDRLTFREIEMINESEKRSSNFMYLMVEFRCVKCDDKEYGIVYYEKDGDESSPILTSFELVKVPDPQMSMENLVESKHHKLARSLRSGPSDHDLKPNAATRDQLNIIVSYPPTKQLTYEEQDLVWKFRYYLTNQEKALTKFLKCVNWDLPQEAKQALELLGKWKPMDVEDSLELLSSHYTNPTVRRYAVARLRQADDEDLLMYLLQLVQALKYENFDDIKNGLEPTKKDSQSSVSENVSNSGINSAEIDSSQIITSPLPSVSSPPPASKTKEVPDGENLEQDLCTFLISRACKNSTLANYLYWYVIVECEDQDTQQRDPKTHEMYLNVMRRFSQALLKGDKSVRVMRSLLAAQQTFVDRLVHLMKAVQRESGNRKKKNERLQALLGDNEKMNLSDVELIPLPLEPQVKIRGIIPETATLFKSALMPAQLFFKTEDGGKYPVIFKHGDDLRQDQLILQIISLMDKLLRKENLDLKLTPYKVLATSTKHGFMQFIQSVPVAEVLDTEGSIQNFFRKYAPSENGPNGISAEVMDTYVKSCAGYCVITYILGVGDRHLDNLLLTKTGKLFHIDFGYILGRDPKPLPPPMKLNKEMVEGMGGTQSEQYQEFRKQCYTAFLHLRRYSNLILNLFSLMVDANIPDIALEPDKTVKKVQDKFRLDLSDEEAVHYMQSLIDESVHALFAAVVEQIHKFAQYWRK

[28] = target: Cyclin-dependent kinase 7 (Homo sapiens) (UniProt P50613)
[29] = target: Cyclin-dependent kinase 9 (Homo sapiens) (UniProt P50750)
[30] = target: Dual specificity protein kinase TTK (Homo sapiens) (UniProt P33981)
[31] = target: Glycogen synthase kinase-3 alpha (Homo sapiens) (UniProt P49840)
[32] = target: Mitogen-activated protein kinase kinase kinase 3 (Homo sapiens) (UniProt Q99759)
[33] = target: Cyclin-dependent kinase-like 3 (Homo sapiens) (UniProt Q8IVW4)
[34] = target: Mitogen-activated protein kinase 14 (Homo sapiens) (UniProt Q16539)
[35] = target: Cyclin-dependent kinase 11A (Homo sapiens) (UniProt Q9UQ88)
[36] = target: Beta-3 adrenergic receptor (Homo sapiens) (UniProt P13945); settings: Compound concentration 10.0 uM
Sequence of Beta-3 adrenergic receptor (Homo sapiens) (P13945 whole entry, looked up): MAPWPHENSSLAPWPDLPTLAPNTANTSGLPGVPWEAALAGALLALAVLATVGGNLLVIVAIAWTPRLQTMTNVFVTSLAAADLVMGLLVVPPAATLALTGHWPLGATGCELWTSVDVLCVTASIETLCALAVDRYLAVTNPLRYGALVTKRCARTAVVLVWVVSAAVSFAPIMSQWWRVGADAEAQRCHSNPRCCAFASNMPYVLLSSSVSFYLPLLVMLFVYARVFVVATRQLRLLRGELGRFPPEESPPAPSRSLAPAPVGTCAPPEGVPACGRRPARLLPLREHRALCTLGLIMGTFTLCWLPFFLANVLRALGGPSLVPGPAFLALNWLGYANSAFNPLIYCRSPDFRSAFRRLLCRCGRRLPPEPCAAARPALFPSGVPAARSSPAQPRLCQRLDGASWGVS

[37] = target: Myosin light chain kinase (Homo sapiens) (UniProt Q32MK0)
[38] = target: Serine/threonine-protein kinase 4 (Homo sapiens) (UniProt Q13043)
[39] = target: Tyrosine-protein kinase ABL2 (Homo sapiens) (UniProt P42684)
[40] = test system: Epidermal growth factor receptor (Homo sapiens), P00533 [L861Q]
[41] = Compound concentration 100.0 nM
[42] = Compound concentration 1000.0 nM

For CNC(=O)c1ccc(Nc2ncc(C(F)(F)F)c(NCc3nccnc3N(C)S(C)(=O)=O)n2)cc1 [DEFACTINIB], the residual activity [1, 41] was 81%, the residual activity [2, 41] was 100% and the residual activity [3, 41] was 39%. For the same compound, the residual activity [4, 41] was 68%, the residual activity [5, 41] was 84% and the residual activity [6, 41] was 100%. The residual activity [7, 41] was 85%, the residual activity [8, 41] was 98% and the residual activity [9, 41] was 97%. The residual activity [10, 41] was 100%, the residual activity [11, 41] was 97% and the inhibition [12] was -4.42%. For the same compound, the residual activity [13, 41] was 100%, the inhibition [14] was 16.9% and the inhibition [15] was -1.91%. For the same compound, the residual activity [16, 41] was 64%, the inhibition [17] was -7.46% and the residual activity [18, 41] was 37%. For the same compound, the residual activity [19, 41] was 100%, the residual activity [20, 41] was 76% and the residual activity [21, 41] was 23%. The inhibition [22] was 2.45%, the residual activity [23, 41] was 77% and the residual activity [24, 41] was 100%. For the same compound, the residual activity [25, 41] was 96%, the residual activity [26, 41] was 26% and the residual activity [27, 41] was 100%. The residual activity [28, 41] was 59%, the residual activity [29, 41] was 86% and the residual activity [30, 41] was 8.3%. It also gave a residual activity [31, 41] of 83%, a residual activity [32, 41] of 81% and a residual activity [33, 41] of 92%. For the same compound, the residual activity [34, 41] was 100%, the residual activity [35, 41] was 77% and the inhibition [36] was 4.63%. For the same compound, the residual activity [37, 41] was 100%, the residual activity [38, 41] was 97% and the residual activity [39, 41] was 93%. For the same compound, the residual activity [40, 41] was 100%.

CN(c1ccnc(CNc2nc(Nc3ccc4c(c3)CC(=O)N4)ncc2C(F)(F)F)n1)S(C)(=O)=O [PF-00911705] gave a residual activity [1, 42] of 0%, a residual activity [2, 42] of 94% and a residual activity [3, 42] of 92%. It also gave a residual activity [4, 42] of 69%, a residual activity [5, 42] of 80% and a residual activity [6, 42] of 100%. It also gave a residual activity [7, 42] of 81%, a residual activity [8, 42] of 79% and a residual activity [9, 42] of 12%. For the same compound, the residual activity [10, 42] was 97%, the residual activity [11, 42] was 89% and the inhibition [12] was -3.55%. The residual activity [13, 42] was 68%, the inhibition [14] was 8.11% and the inhibition [15] was 1.82%. The residual activity [16, 42] was 30%, the inhibition [17] was -0.97% and the residual activity [18, 42] was 54%. The residual activity [19, 42] was 100%, the residual activity [20, 42] was 70% and the residual activity [21, 42] was 4.4%. It also gave an inhibition [22] of 33.5%, a residual activity [23, 42] of 0.5% and a residual activity [24, 42] of 0%. For the same compound, the residual activity [25, 42] was 62%, the residual activity [26, 42] was 5.5% and the residual activity [27, 42] was 84%. The residual activity [28, 42] was 3.5%, the residual activity [29, 42] was 84% and the residual activity [30, 42] was 13%. It also gave a residual activity [31, 42] of 64%, a residual activity [32, 42] of 44% and a residual activity [33, 42] of 78%. The residual activity [34, 42] was 92%, the residual activity [35, 42] was 94% and the inhibition [36] was 1.64%. For the same compound, the residual activity [37, 42] was 100%, the residual activity [38, 42] was 100% and the residual activity [39, 42] was 75%. For the same compound, the residual activity [40, 42] was 70%.
